Holding throughout (type): in vivo, rat
One experiment concerns dopamine neurons in SuMN. Put plainly: Microdialysis of dopamine metabolites at SCN after intra-SuMN AMPA infusion. As to conditions: compared to vehicle. The protocol: Female Sprague-Dawley rats (12) were housed in a room at constant temperature and humidity with a 14/10 light/dark cycle were fed regular diet ad libitum. Each rat was microinjected with retrograde tracer fluorogold (4%, 20 nl) to SCN and allowed to rest for 10 days. The rats were then perfused with 4% paraformaldehyde and the brains were dissected for immunohistochemistry. Dopamine neurons projecting to SCN were identified with double immunochemistry of fluorogold (FG) and tyrosine hydroxylase (TH). To verify functional connection, dopamine metabolites at SCN were measured by microdialysis in freely moving rats following infusion of AMPA (0.3 mM/0.5 µl) to SuMN.

Experiment [1] concerns high fat diet-resistant rats (HF-R). Put plainly: Chronic intra-SuMN AMPA treatment of high fat diet-resistant rats. How it is done: (§1) In separate protocols, female Sprague-Dawley high fat diet-resistant rats (HF-R) (16 animals) were fed high fat diets for 4 months or female Sprague-Dawley high fat diet-sensitive rats (HF-S) (16 animals) were fed high fat diets for 3 months. Following initial feeding protocols, AMPA (0.03 mM/0.5 µl) or vehicle was microinjected into SuMN daily for 13 (HF-R animals) or 14 d (HF-S) at the onset of locomotor activity. At the end of AMPA treatment, HF-R animals were sacrificed by decapitation. Trunk blood was collected for glucose and insulin analysis retroperitoneal fat mass were weighed. At the end of AMPA treatment, HF-S animals were subjected to glucose tolerance tests (GTT) and two days after GTT, were sacrificed. Trunk blood was collected for glucose and insulin analysis and retroperitoneal fat mass were weighed. Body weight and food consumption were measured daily throughout both protocols.

The test system of experiment [2] is high fat diet-sensitive rats (HF-S). Put plainly: Chronic intra-SuMN AMPA treatment of high fat diet-sensitive rats, GTT. The protocol:
as §1

For experiment [3], the system named is insulin resistant high fat fed rats. Put plainly: NMDA agonist directed to the SuMN in high fat fed rats, GTT. The settings on record: female Sprague Dawley HFD-sensitive rats, cannula to SuMN daily for 2 weeks at offset of light, relative to vehicle, FIG. 6. How it is done:
Treatment of insulin resistant high fat fed rats with an NMDA agonist directed to the SuMN improved insulin resistance and glucose intolerance. Female Sprague Dawley rats were fed a high fat diet for one month and those animals most sensitive to the diet (those gaining the most weight in the group) were then treated with either an NMDA agonist or vehicle for a three minute period at the offset of light (14 hour daily photoperiod) via a cannula directed to the SuMN daily for 2 weeks while maintained on the high fat diet. At the end of the treatment period, animals were subjected to a glucose tolerance test (GTT) (3 g/kg of glucose) and plasma samples were taken before and at 30, 60, 90, and 120 minutes after glucose treatment. Plasma samples were analyzed for glucose and insulin levels.

Experiment [4] has as its system insulin resistant rats on a high fat diet. Put plainly: Dopamine infusion into the SCN of high fat fed SHR rats, GTT. The settings on record: male SHR rats on high fat diet. The protocol:
Male SHR rats at approximately 12 weeks of age were fed a high fat diet for one month and were then treated with either dopamine or vehicle for a three minute period at the offset of light (14 hour daily photoperiod) via a cannula directed to the SCN daily for 2 weeks while maintained on the high fat diet. At the end of the treatment period, animals were subjected to a glucose tolerance test (GTT) (3 g/kg of glucose) and plasma samples were taken before and at 30, 60, 90, and 120 minutes after glucose treatment. Plasma samples were analyzed for glucose and insulin levels.

Where [5] appears, read: AMPA into SuMN daily for 13 d, versus vehicle, p<0.01.
Where [6] appears, read: cannula to SCN daily for 2 weeks at offset of light, relative to vehicle, FIG. 7.

The values below come from patent publication US20220142960A1, “Compositions and Methods for Treating Metabolic Disorders” (VeroScience LLC, priority 2013, published 2022).

On to `Cc1o[nH]c(=O)c1CC(N)C(=O)O` (stereo not shown) [AMPA], for which the “dopamine metabolite HVA at SCN area” value in the experiment on dopamine neurons in SuMN (intra-SuMN AMPA infusion 0.3 mM/0.5 µl, freely moving rats, p<0.05, FIG. 1A) was “significant elevations”. For the same molecule, in the experiment with dopamine neurons in SuMN (intra-SuMN AMPA infusion 0.3 mM/0.5 µl, freely moving rats, p<0.05, FIG. 1B), the “dopamine metabolite DOPAC at SCN area” value is recorded as “significant elevations”. Moreover, in the experiment on dopamine neurons in SuMN (intra-SuMN AMPA infusion, FIG. 1C), the “serotonin metabolite 5-HIAA at the SCN” value is reported as “did produce a significant elevation”. Besides, the body weight result in experiment [1] (AMPA 0.03 mM/0.5 µl into SuMN daily for 13 d at onset of locomotor activity, versus vehicle, p<0.05) was “significantly reduced”. The same molecule displayed a retroperitoneal fat in experiment [1] (AMPA into SuMN daily for 13 d, vehicle 13.4 g) of 9.02 g. The daily food consumption in experiment [1] (AMPA into SuMN daily for 13 d, vehicle 17.7 g, p<0.05) is 13.7 g. In experiment [1] (AMPA into SuMN daily for 13 d, vehicle 19.1 g), this molecule displayed a total abdominal fat of 12.9 g. In experiment [1] (setting [5]), the “reduction of retroperitoneal fat” value came to 33% and the “reduction of total abdominal fat” value is recorded as 32%. Further, in experiment [2] (AMPA 0.03 mM/0.5 µl into SuMN daily for 14 d, compared to vehicle), the “plasma glucose concentration during the GTT” value is “significantly reduced”. For the same molecule, the “total area under the glucose GTT curve” value in experiment [2] (AMPA into SuMN daily for 14 d) was “decreased”. Besides, in experiment [2] (AMPA into SuMN daily for 14 d, decreased from 2.2, P<0.05), the “basal plasma insulin level” value was 1.15 ng/mL. Moreover, the “basal plasma glucose level” value in experiment [2] (AMPA into SuMN daily for 14 d, decreased from 114, P<0.05) is 106 mg/dL. For the same molecule, the “Insulin resistant index (HOMA-IR)” value in experiment [2] (AMPA into SuMN daily for 14 d, reduced from 13.0±1.79, p=0.018) is given as 6.3±1.70.
Take `CN[C@H](CC(=O)O)C(=O)O` [NMDA]: in experiment [3], the insulin resistance result is “significantly improved”, the “plasma glucose levels during the GTT” value was “significantly reduced” and the “plasma insulin levels during the GTT” value is given as “significantly reduced”. In experiment [4] (setting [6]), the insulin resistance entry was “significantly improved”, the “plasma glucose levels during the GTT” value is “significantly reduced” and the “plasma insulin levels during the GTT” value was “significantly reduced”.
Regarding `NCCc1ccc(O)c(O)c1` [dopamine], the insulin resistance result in experiment [4] (setting [6]) was “improved”. In addition, in experiment [4] (infusion directly into the SCN daily for 2 weeks), the glucose intolerance entry is “improved”.
